Consider eleven molecules from ChEMBL document CHEMBL1201862, “PubChem BioAssay data set” (2004).

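These data come from cells grown in 96-well plates and exposed to compound for 48 hours at five concentrations. At the GI50, growth is halved.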 The source made the active and inactive calls. Rule as the data show it: active = GI50 up to about 1.1 µM and inactive = higher.

Some test systems named below: KM12; SF-295; COLO 205; 786-0; HOP-92; T47D; HCT-15; HCC 2998; SK-OV-3; Malme-3M; MOLT-4; NCI-H460; NCI/ADR-RES; MCF7; TK-10; OVCAR-4; SW-620; UACC-257; CAKI-1; UO-31.
Common to all, as to assay: DTP human tumour cell line panel, 48 h

For the molecule `COc1cc2c(cc1OC)C1c3ccccc3CCN1CC2` (configuration not stated), the GI50 (usually the concentration at which growth is held to half of that of the control) in the test with KM12 is > 100 µM (inactive); with SF-295 it was 82.6 µM (inactive); in the test with COLO 205, 58.7 µM (inactive); with 786-0 it was > 100 µM (inactive); in the test on HOP-92, 59.3 µM (inactive); with T47D, 75.9 µM (inactive). The GI50 was more than 100 µM in the test with HCT-15; 43.6 µM (inactive) with HCC 2998; > 100 µM (inactive) with SK-OV-3; > 100 µM (inactive) in the test on Malme-3M; 78.3 µM (inactive) in the test on MOLT-4; 94.4 µM (inactive) in the test with NCI-H460. In addition, the GI50 in the test on NCI/ADR-RES is 95.7 µM (inactive); in the test on MCF7 it was > 100 µM (inactive); with TK-10, > 100 µM (inactive); with OVCAR-4, > 100 µM (inactive); with SW-620 it was 63.2 µM (inactive); with UACC-257, > 100 µM (inactive). Moreover, in the test with CAKI-1, the GI50 was > 100 µM (inactive).
`N#CC1(C#N)[C@@H]2CCC=C(Sc3ccccc3)[C@@H]21`: the GI50 in the test with KM12 was 14.9 µM (inactive); in the test with SF-295 it was 16.5 µM (inactive); in the test with COLO 205, 17.3 µM (inactive); in the test with 786-0, 16.1 µM (inactive); in the test on HOP-92, 14.9 µM (inactive); with T47D it was 22.1 µM (inactive). In addition, the GI50 with HCT-15 was 17.7 µM; in the test with HCC 2998 it was 16.7 µM (inactive); in the test with SK-OV-3 it was 19.5 µM (inactive); in the test with Malme-3M, 16.9 µM (inactive); in the test on MOLT-4, 14.5 µM (inactive); in the test on NCI-H460, 19.5 µM (inactive). Moreover, the GI50 with NCI/ADR-RES is 18.4 µM (inactive); with MCF7 it was 10.4 µM (inactive); in the test with TK-10 it was 14.6 µM (inactive); with OVCAR-4, 14.3 µM (inactive); in the test with SW-620 it was 11.9 µM (inactive); in the test on UACC-257, 17.5 µM (inactive). In addition, the GI50 in the test with CAKI-1 is 13.6 µM (inactive).
On to `Cc1ccc(C)c(NC(=O)C(Cc2c[nH]c3ccccc23)NC(=O)OCc2ccccc2)c1` (configuration not stated), for which the GI50 with KM12 was 16.5 µM (inactive); in the test on SF-295 it was 25.8 µM (inactive); in the test with COLO 205, 13.2 µM (inactive); in the test on 786-0, 15.5 µM (inactive); in the test with HOP-92, 17.2 µM (inactive); with T47D, 9.18 µM (inactive). In addition, the GI50 was 20.9 µM in the test with HCT-15; 20.1 µM (inactive) in the test with SK-OV-3; 25.4 µM (inactive) in the test with Malme-3M; 4.52 µM (inactive) in the test with MOLT-4; 13.7 µM (inactive) with NCI-H460; 11.1 µM (inactive) with NCI/ADR-RES. In addition, the GI50 in the test on MCF7 is 23.1 µM (inactive); with TK-10, 15.3 µM (inactive); in the test on OVCAR-4 it was 5.12 µM (inactive); in the test on SW-620, 15.1 µM (inactive); in the test with UO-31, 15.4 µM (inactive); in the test with UACC-257, 10.6 µM (inactive). For the same molecule, in the test with CAKI-1, the GI50 is 16.4 µM (inactive).
Regarding `N#CCN1CCCN(CC#N)CCN(CC#N)CCCN(CC#N)CC1`, the GI50 with KM12 is 39.9 µM (inactive); in the test on SF-295 it was > 100 µM (inactive); in the test on COLO 205, 11.4 µM (inactive); in the test on 786-0, > 100 µM (inactive); in the test with HOP-92, > 100 µM (inactive); in the test on T47D it was > 100 µM (inactive). For the same molecule, the GI50 with HCC 2998, in the test with SK-OV-3, with Malme-3M, with MOLT-4, with NCI-H460 and with NCI/ADR-RES was > 100 µM (inactive) throughout. For the same molecule, the GI50 was > 100 µM (inactive) in the test on MCF7; > 100 µM (inactive) in the test with TK-10; > 100 µM (inactive) in the test on OVCAR-4; 86.9 µM (inactive) in the test with SW-620; > 100 µM (inactive) with UO-31; > 100 µM (inactive) in the test with UACC-257. In addition, the GI50 in the test with CAKI-1 was > 100 µM (inactive).
`Oc1ccc(O)c(CNc2ccc(C(O)C(F)(F)F)cc2)c1` (configuration not stated): the GI50 is 16.4 µM (inactive) in the test with SF-295; 18.5 µM (inactive) in the test with COLO 205; 13 µM (inactive) in the test with 786-0; 13.6 µM (inactive) in the test with HOP-92; 18.1 µM (inactive) with T47D; 13.7 µM with HCT-15. In addition, the GI50 in the test with SK-OV-3 is 44.3 µM (inactive); in the test on Malme-3M, 15.6 µM (inactive); in the test on MOLT-4, 5.01 µM (inactive); in the test on NCI-H460, 21.5 µM (inactive); in the test with NCI/ADR-RES, 8.43 µM (inactive); in the test with MCF7, 21.8 µM (inactive). For the same molecule, the GI50 was 17.8 µM (inactive) in the test with TK-10; 16.3 µM (inactive) in the test on OVCAR-4; 32.2 µM (inactive) with SW-620; 10.3 µM (inactive) with UO-31; 18.4 µM (inactive) with UACC-257; 16 µM (inactive) in the test on CAKI-1.
As for `CCOC(=O)N1C=CC(=C2C(=C3C=CN(C(=O)OCC)C=C3)C(=C3C=CN(C(=O)OCC)C=C3)C2=C2C=CN(C(=O)OCC)C=C2)C=C1`, the GI50 was 22.1 µM (inactive) in the test on KM12; 21.8 µM (inactive) in the test on SF-295; 23.1 µM (inactive) with COLO 205; 28.6 µM (inactive) in the test with 786-0; 0.0637 µM (active) in the test on HOP-92; 36.5 µM (inactive) with T47D. Besides, the GI50 with HCT-15 is 12.4 µM; with SK-OV-3, 44 µM (inactive); in the test with Malme-3M, 13.5 µM (inactive); in the test with MOLT-4, 16.9 µM (inactive); with NCI-H460, 22.9 µM (inactive); with NCI/ADR-RES, 22.4 µM (inactive). Further, the GI50 in the test on MCF7 was 35.6 µM (inactive); with TK-10, 26 µM (inactive); in the test on OVCAR-4, 38 µM (inactive); in the test with SW-620 it was 17 µM (inactive); in the test on UO-31, 12.9 µM (inactive); in the test on UACC-257 it was 34.1 µM (inactive). Further, the GI50 with CAKI-1 was 16.7 µM (inactive).
As for `O=c1c2cc(-c3ccccc3)cnc2sn1-c1ccc([N+](=O)[O-])cc1`, the GI50 with KM12 was 38.9 µM (inactive); with SF-295, 27 µM (inactive); in the test on COLO 205, > 100 µM (inactive); with 786-0 it was 34.5 µM (inactive); with HOP-92, 20.6 µM (inactive); with T47D, 44.1 µM (inactive). In addition, the GI50 was 55.2 µM with HCT-15; > 100 µM (inactive) in the test with HCC 2998; 26.9 µM (inactive) with SK-OV-3; 40.6 µM (inactive) in the test with Malme-3M; 71.3 µM (inactive) in the test on MOLT-4; 37.3 µM (inactive) with NCI-H460. The GI50 in the test on NCI/ADR-RES was 32.7 µM (inactive); in the test with MCF7, 49 µM (inactive); in the test on OVCAR-4, 39 µM (inactive); in the test on SW-620, 94.8 µM (inactive); in the test on UO-31, 40 µM (inactive); in the test with UACC-257 it was > 100 µM (inactive). Besides, the GI50 in the test on CAKI-1 is 39.6 µM (inactive).
In the case of `CC(C)(C)C1=CC(O)(c2c3ccccc3c(C3(O)C=C(C(C)(C)C)C(=O)C(C(C)(C)C)=C3)c3ccccc23)C=C(C(C)(C)C)C1=O`, the GI50 in the test with KM12 is > 100 µM (inactive); in the test on SF-295, > 100 µM (inactive); in the test on COLO 205 it was > 100 µM (inactive); in the test on 786-0, > 100 µM (inactive); in the test with HOP-92, < 0.01 µM (active); with T47D it was > 100 µM (inactive). Besides, the GI50 in the test with HCT-15 was more than 100 µM; in the test with SK-OV-3, > 100 µM (inactive); with Malme-3M it was > 100 µM (inactive); with MOLT-4, 48.2 µM (inactive); in the test on NCI/ADR-RES it was > 100 µM (inactive); with MCF7, > 100 µM (inactive). Further, the GI50 in the test with TK-10, with OVCAR-4, with SW-620, with UO-31, in the test on UACC-257 and in the test on CAKI-1 was > 100 µM (inactive) each time.
As to `OC1CCC(C2C3CCCCC3C3CCCCC3C2C2CCC(O)CC2)CC1` (configuration not stated), the GI50 was 3.33 µM (inactive) with KM12; 4.28 µM (inactive) with SF-295; 2.22 µM (inactive) in the test on COLO 205; 4.16 µM (inactive) in the test on 786-0; 8.05 µM (inactive) in the test on HOP-92; 5.26 µM (inactive) with T47D. For the same molecule, the GI50 in the test with HCT-15 is 2.49 µM; in the test on SK-OV-3, 5.19 µM (inactive); in the test on Malme-3M it was 15.8 µM (inactive); with MOLT-4 it was 4.39 µM (inactive); in the test on NCI-H460, 2.96 µM (inactive); with NCI/ADR-RES it was 4.58 µM (inactive). Further, the GI50 in the test on MCF7 is 3.4 µM (inactive); with TK-10 it was 5.18 µM (inactive); in the test on OVCAR-4, 4.04 µM (inactive); with SW-620 it was 3.99 µM (inactive); with UO-31, 4.81 µM (inactive); with UACC-257 it was 13.6 µM (inactive). The GI50 in the test on CAKI-1 was 3.62 µM (inactive).
On to `COc1ccc2c3c(c(=O)n(C)c2c1OC)C=CC(C)(C)O3`, for which the GI50 in the test on KM12 was 21.6 µM (inactive); in the test with SF-295, 36.7 µM (inactive); with COLO 205, 19.7 µM (inactive); with 786-0 it was 43.1 µM (inactive); in the test with HOP-92, 18 µM (inactive); with T47D it was 25.8 µM (inactive). In addition, the GI50 with HCT-15 is 13.4 µM; in the test on HCC 2998 it was 29.5 µM (inactive); with SK-OV-3, 32.1 µM (inactive); in the test with Malme-3M, 50.4 µM (inactive); in the test with MOLT-4 it was 24.4 µM (inactive); in the test with NCI/ADR-RES, 18 µM (inactive). Further, the GI50 in the test with MCF7 is 36.8 µM (inactive); in the test with TK-10, 28.8 µM (inactive); with OVCAR-4 it was 19.1 µM (inactive); in the test on SW-620, 28.4 µM (inactive); with UO-31, 20.9 µM (inactive); in the test with UACC-257, 35.3 µM (inactive). The GI50 in the test with CAKI-1 is 13.5 µM (inactive).
In the case of `COc1cc2c3c(c1O)C1(C=CC(=O)C=C1)CC3N(C)CC2` (configuration not stated) [GLAZIOVINE], the GI50 with KM12 was 4.48 µM (inactive); in the test on SF-295, 12 µM (inactive); with COLO 205, 5.4 µM (inactive); in the test on 786-0 it was 3.17 µM (inactive); in the test with HOP-92, 11.6 µM (inactive); with T47D it was 11.7 µM (inactive). Further, the GI50 in the test on HCT-15 is 5.96 µM; in the test with HCC 2998, 12.4 µM (inactive); in the test with SK-OV-3 it was 31.3 µM (inactive); in the test with Malme-3M it was 11.3 µM (inactive); in the test with MOLT-4, 4.26 µM (inactive); in the test on NCI-H460 it was 4.11 µM (inactive). The GI50 is 2.72 µM (inactive) in the test on NCI/ADR-RES; 5.14 µM (inactive) in the test with MCF7; 21.6 µM (inactive) in the test with TK-10; 5.97 µM (inactive) in the test with OVCAR-4; 5.89 µM (inactive) with SW-620; 13.4 µM (inactive) in the test on UACC-257. Moreover, the GI50 in the test on CAKI-1 was 7.29 µM (inactive).
